Measurements: US20130137757A1 (priority 2010, published 2013)

Key:
[1] = tested on: influenza viruses A/Memphis/1/71 (H3N2 type) strain; test: hemagglutination inhibition test; format: cell-based, influenza virus; conditions: guinea pig red blood cell suspensions, A/Memphis/1/71 (H3N2) strain, in PBS
[2] = tested on: influenza viruses A/PR/8/34 (H1N1 type) strain; test: hemagglutination inhibition test; format: cell-based, influenza virus; conditions: guinea pig red blood cell suspensions, A/PR/8/34 (H1N1) strain, in PBS

Which “hemagglutination (visual and microscopic observation)” value [1] does the source give for deoxyribonucleic acid [DNA] here?
Its value is “strong hemagglutination was observed”.

And the “hemagglutination (visual and microscopic observation)” value [2]?
The value was “strong hemagglutination was observed”.
